Assay results published in patent publication US10231933B2, “Enteric coated, soluble creatine and polyethylene glycol composition for enhanced skeletal uptake of oral creatine” (CRYXA LLC, priority 2007, dated 2019).

What was measured:
[1] = Muscle biopsy (vastus lateralis) ATP, creatine phosphate and creatine concentrations pre- and post-supplementation; format: in vivo, human
Experimental: The participants selected had the following characteristics:
Pre and post muscle biopsies were obtained from the vastus lateralis muscle. Samples were immediately frozen in liquid nitrogen and stored at −80° C. for later analysis. The frozen samples were weighed to the nearest 0.1 mg, freeze dried for 8 hours and reweighed. The tissue samples were extracted and then analyzed for creatine, creatine phosphate, and ATP content via […].

[2] = Blood chemistries pre- and post-supplementation; format: in vivo, human; parameters: ALT (SGPT): unit not given here
[3] = known; cited from earlier work
[4] = Post 5 days supplementation, muscle biopsy
[5] = post-suppl., 5 days, control 20 gm/day, experimental 10 gm/day creatine equivalent
[6] = male, human, blood, oral, 20 gm/day

CN(CC(=O)O)C(=N)N.O [creatine•H2O, creatine monohydrate]
skeletal muscle uptake (comparison of the two) ([1]; 50 g creatine equivalents total (creatine HCl/PEG) vs 100 g total (creatine.H2O)): similar | ATP [1, 4]: 22.7 ± 1.2 μM · gdw^−1 | Creatine [1, 4]: 39.2 ± 2.7 μM · gdw^−1 | Creatine · ATP^−1 (ratio) [1, 4]: 2.01 ± 0.33 ratio | creatine phosphate [1, 4]: 75.6 ± 4.0 μM · gdw^−1 | creatine phosphate/ATP^−1 [1, 4]: 3.34 ± 0.01 | ATP ([1]; Pre, muscle biopsy): 21.6 ± 1.4 μM · gdw^−1 | Creatine ([1]; Pre, muscle biopsy): 23.0 ± 4.2 μM · gdw^−1 | Creatine · ATP^−1 (ratio) ([1]; Pre, muscle biopsy): 1.36 ± 0.36 ratio | creatine phosphate ([1]; Pre, muscle biopsy): 71.7 ± 4.8 μM · gdw^−1 | creatine phosphate/ATP^−1 ([1]; Pre, muscle biopsy): 3.33 ± 0.01 | muscle concentrations of free creatine and total creatine by the end of the study ([1]; end of 5 days supplementation): significantly elevated | CELLULAR ATP (molar ratio) [1, 5]: 5.07 ± 0.24 molar ratio | UPTAKE EFFICACY [1, 5]: 5.85 ± 1.85 | free creatine [1, 5]: 39.2 ± 2.7 μM · gdw^−1 | CELLULAR ATP (molar ratio) ([1]; pre-suppl., muscle biopsy): 4.48 ± 0.30 molar ratio | free creatine ([1]; pre-suppl., muscle biopsy): 23.0 ± 4.2 μM · gdw^−1 | A/G Ratio (ratio) ([2]; Post): 1.88 ± 0.06 ratio | ALT (SGPT) ([2]; Post): 20.9 ± 4.1 | AST (SGOT) ([2]; Post): 23.3 ± 2.1 IU · L^−1 | Albumin, Serum ([2]; Post): 4.5 ± 0.1 g/dL | Alk. Phosphatase ([2]; Post): 85.4 ± 9.3 IU · L^−1 | BUN ([2]; Post): 17.9 ± 1.8 mg/dL | BUN/Creatinine (ratio) ([2]; Post): 16.3 ± 1.4 ratio | Bilirubin, Total ([2]; Post): 0.6 ± 0.1 mg/dL | Calcium, Serum ([2]; Post): 9.7 ± 0.1 mg/dL | Carbon Dioxide ([2]; Post): 25.8 ± 0.7 mM · L^−1 | Chloride, Serum ([2]; Post): 101.9 ± 0.7 mM · L^−1 | Creatinine, Serum ([2]; Post): 1.09 ± 0.07 mg/dL | Globulin, Serum ([2]; Post): 2.4 ± 0.1 g/dL | Glucose, Serum ([2]; Post): 82.6 ± 4.3 mg/dL | Iron, Serum ([2]; Post): 103.3 ± 14.2 µg/dL | LDH ([2]; Post): 157.9 ± 8.2 IU · L^−1 | Phosphorus, Serum ([2]; Post): 4.3 ± 0.3 mg/dL | Potassium, Serum ([2]; Post): 4.4 ± 0.1 mM · L^−1 | Protein, Serum ([2]; Post): 6.9 ± 0.1 g/dL | Sodium, Serum ([2]; Post): 138.6 ± 0.6 mM · L^−1 | Uric Acid, Serum ([2]; Post): 4.7 ± 0.2 mg/dL | A/G Ratio (ratio) ([2]; Pre): 1.77 ± 0.06 ratio | ALT (SGPT) ([2]; Pre): 24.1 ± 4.5 | AST (SGOT) ([2]; Pre): 25.3 ± 3.6 IU · L^−1 | Albumin, Serum ([2]; Pre): 4.5 ± 0.1 g/dL | Alk. Phosphatase ([2]; Pre): 78.7 ± 10.1 IU · L^−1 | BUN ([2]; Pre): 16.4 ± 1.4 mg/dL | BUN/Creatinine (ratio) ([2]; Pre): 17.8 ± 1.3 ratio | Bilirubin, Total ([2]; Pre): 0.6 ± 0.1 mg/dL | Calcium, Serum ([2]; Pre): 9.9 ± 0.1 mg/dL | Carbon Dioxide ([2]; Pre): 26.7 ± 0.4 mM · L^−1 | Chloride, Serum ([2]; Pre): 101.0 ± 0.5 mM · L^−1 | Creatinine, Serum ([2]; Pre): 0.93 ± 0.04 mg/dL | Globulin, Serum ([2]; Pre): 2.6 ± 0.1 g/dL | Glucose, Serum ([2]; Pre): 86.7 ± 2.7 mg/dL | Iron, Serum ([2]; Pre): 88.8 ± 10.5 µg/dL | LDH ([2]; Pre): 155.0 ± 6.0 IU · L^−1 | Phosphorus, Serum ([2]; Pre): 4.3 ± 0.1 mg/dL | Potassium, Serum ([2]; Pre): 4.3 ± 0.1 mM · L^−1 | Protein, Serum ([2]; Pre): 7.1 ± 0.1 g/dL | Sodium, Serum ([2]; Pre): 139.1 ± 0.5 mM · L^−1 | Uric Acid, Serum ([2]; Pre): 5.6 ± 0.3 mg/dL | breakdown in the stomach [3]: rapidly breaks down in the stomach to form creatinine | time of peak blood concentration post-ingestion (5 hour sampling, experimental peak may not have been fully achieved): two hours | Integrated area under curve (5 hr sampling period post-ingestion): 91.8 ± 5.5 mg · dL^−1 · 5 hrs^−1 | Circulating concentrations of creatine (Pre ingestion): 0.47 ± 0.35 mg/dL | concentration at 15 min [6]: 40.8 ± 11.4 µg/mL | concentration at 30 min [6]: 138 ± 18.6 µg/mL | concentration at 1 h [6]: 208 ± 18.7 µg/mL | concentration at 2 h [6]: 260 ± 29.6 µg/mL | concentration at 3 h [6]: 242 ± 12.9 µg/mL | concentration at 4 h [6]: 162 ± 11.3 µg/mL | concentration at 5 h [6]: 102 ± 8.5 µg/mL | time by which blood creatine concentrations increased significantly (post-ingestion): ≤ 15 min | peak blood concentration of creatine (within five hours post-ingestion): 25.99 ± 2.96 mg/dL
